Experimental data taken from patent US6469005B1, “Propargylether derivatives” (priority 1999, dated 2002).

Experiments:
[1] = system: Phytophthora; assay: D-2: Action against Phytophthora on tomato plants (residual-protective and systemic action); format: in vivo; details: 0.02% active ingredient, sprayed (infected after 48 hours, evaluated after 5 days) or watered, systemic (infected after 96 hours, evaluated after 4 days)
Description: D-2: Action Against Phytophthora on Tomato Plants
(§1) a) Residual-protective Action
(§2) After a cultivation period of 3 weeks, tomato plants are sprayed with a spray mixture (0.02% active ingredient) prepared from a wettable powder formulation of the test compound. After 48 hours, the treated plants are infected with a sporangia suspension of the fungus. Fungus infestation is evaluated after incubation of the infected plants for 5 days at 90-100% relative humidity and +20° C.
as §2, with “watered” for “sprayed”, “ingredient based on the volume of the soil)” for “ingredient)”, “compound. […]” for “compound.”, “96” for “48”, “4” for “5”

[2] = system: Plasmopara viticola; assay: D-1: Action against Plasmopara viticola on vines (residual-protective and residual-curative action); format: in vivo; details: vine seedlings, spray mixture 0.02% active ingredient; protective (infected after 24 hours) or curative (sprayed 24 hours after infection); evaluated after 6 days
Description: D-1: Action Against Plasmopara viticola on Vines a) Residual-Protective Action
Vine seedlings are sprayed at the 4- to 5-leaf stage with a spray mixture (0.02% active ingredient) prepared from a wettable powder formulation of the test compound. After 24 hours, the treated plants are infected with a sporangia suspension of the fungus. Fungus infestation is evaluated after incubation for 6 days at 95-100% relative humidity and +20° C. […]
b) Residual-curative Action
Vine seedlings are infected at the 4- to 5-leaf stage with a sporangia suspension of the fungus. After incubation for 24 hours in a humidity chamber at 95-100% relative humidity and +20° C., the infected plants are dried and sprayed with a spray mixture (0.02% active ingredient) prepared from a wettable powder formulation of the test compound. After the spray coating has dried, the treated plants are placed in the humidity chamber again.
Fungus infestation is evaluated 6 days after infection.

[3] = system: Phytophthora; assay: D-3: Action against Phytophthora on potato plants (residual-protective and systemic action); format: in vivo; details: potato plants (Bintje variety), 0.02% active ingredient; sprayed or watered (systemic), infected after 48 hours, evaluated after 4 days
Description: ID-3: Action Against Phytophthora on Potato Plants
as §1
(§3) 2-3 week old potato plants (Bintje variety) are sprayed with a spray mixture (0.02% active ingredient) prepared from a wettable powder formulation of the test compound. After 48 hours, the treated plants are infected with a sporangia suspension of the fungus. Fungus infestation is evaluated after incubation of the infected plants for 4 days at 90-100% relative humidity and +20° C.
as §3, with “watered” for “sprayed”, “ingredient based on the volume of the soil)” for “ingredient)”, “compound. […]” for “compound.”, “C. Fungal infestation is effectively controlled with compounds of Tables 1 to 47.” for “C.”

| SMILES | fungal infestation (Phytophthora on tomato plants) [1] | fungal infestation (Plasmopara viticola on vines) [2] | melting point | fungal infestation (Phytophthora on potato plants) [3] |
| --- | --- | --- | --- | --- |
| CCC#CCOc1ccc(CCNC(=O)C(=O)c2ccc(Cl)c(Cl)c2)cc1OC [Compound E2.02, 2-(3,4-Dichloro-phenyl)-N-[2-(3-methoxy-4-pent-2-ynyloxy-phenyl)-ethyl]-2-oxo-acetamide] | completely inhibit fungal infestation | completely inhibit fungal infestation | 94 to 95 °C | – |
| CCC#CCOc1ccc(CCNC(=O)C(O)c2ccc(Cl)c(Cl)c2)cc1OC (stereo not drawn) [Compound E1.02, 2-(3,4-Dichloro-phenyl)-2-hydroxy-N-[2-(3-methoxy-4-pent-2-ynyloxy-phenyl)-ethyl]-acetamide] | completely inhibit fungal infestation | completely inhibit fungal infestation | – | completely inhibit fungal infestation |
| C#CCOc1ccc(CCNC(=O)C(OC(=O)C(=O)OC)c2ccc(Br)cc2)cc1OC (stereo not drawn) [Compound E4.01, 2-(4-Bromo-phenyl)-2-methyloxalyloxy-N-[2-(3-methoxy-4-prop-2-ynyloxy-phenyl)-ethyl]-acetamide] | completely inhibit fungal infestation | completely inhibit fungal infestation | – | – |
| C#CCOc1ccc(CCNC(=O)C(O)c2ccc(-c3ccc(C(F)(F)F)cc3)cc2)cc1OC (stereo not drawn) [Compound E3.03, 2-(4′-Trifluoro-biphenyl-4-yl)-2-hydroxy-N-[2-(3-methoxy-4-prop-2-ynyloxy-phenyl)-ethyl]-acetamide] | completely inhibit fungal infestation | completely inhibit fungal infestation | – | – |
| COc1cc(CCNC(=O)[C@H](NC(=O)OC(C)(C)C)C(C)C)ccc1OCC#Cc1ccc(Cl)cc1 (stereo in doubt) | – | – | 141 to 142 °C | – |
| C#CCOc1ccc(CCNC(=O)C(O)c2ccc(Cl)c(Cl)c2)cc1OC (stereo not drawn) [Compound E1.01, 2-(3,4-Dichloro-phenyl)-2-hydroxy-N-[2-(3-methoxy-4-prop-2-ynyloxy-phenyl)-ethyl]-acetamide] | completely inhibit fungal infestation | completely inhibit fungal infestation | – | completely inhibit fungal infestation |
| C#CCOc1ccc(CCNC(=O)C(=O)c2ccc(-c3ccc(Cl)cc3)cc2)cc1OC | – | – | 122 to 124 °C | – |
